We go through 6 compounds from PMC4210216, “Isolation, Purification and Molecular Mechanism of a Peanut Protein-Derived ACE-Inhibitory Peptide” (PLoS ONE, 2014).

No end group written: not given here.

One assay concerns ACE. The arrangement: method as in 3 sources, ref 52 = [52]; PMID 19886677; doi:10.1021/jf901787e; 52 Guang C , Phillips RD ( 2009 ) Purification, activity and sequence of angiotensin I converting enzyme inhibitory peptide from alcalase hydrolysate of peanut flour . Journal of agricultural and food ||| ref 43 = [43]; PMID 16680798; doi:10.1002/psc.758; 43 Li GH , Wan JZ , Le GW , Shi YH ( 2006 ) Novel angiotensin I-converting enzyme inhibitory peptides isolated from Alcalase hydrolysate of mung bean protein . Journal of Peptide Science 12 : 509 – 51 ||| ref 45 = [45]; 45 Li GH , Le GW , Shi YH , Shrestha S ( 2004 ) Angiotensin I–converting enzyme inhibitory peptides derived from food proteins and their physiological and pharmacological effects . Nutrition Research. Particulars: cited from earlier work; for mode of ACE inhibition: from human serum trypsin hydrolysate.

In assay [1] the test system is spontaneously hypertensive rats (SHRs). Kind of assay: Long-term antihypertensive activity in SHRs (28 days, SBP). In kind it is in vivo, rat. The note with it: male SHR, captopril 40 mg/kg BW. On the procedure: The in vivo tests for antihypertensive activity of peanut peptide was conducted using a previous method, and whole tests were conducted in Chinese Medicine Experiment Center of Hubei College of Traditional Chinese Medicine, authorized by SATCM (State Administration of Traditional Chinese Medicine, China). The male spontaneously hypertensive rats (SHRs) was used for the experimental model while the average weight of each rat was between 210 and 240 g and four rats were numbered as one group for feeding. These rats had free access to food and drink in their cages located in a 25°C room temperature with 12 h of light cycle. After 1 week for adaptation to this environment, the determination of blood pressure was conducted and the comparison of different group was investigated. The SHRs were randomly divided into five groups, named blank control group, low-dose group (100 mg/kg body weight (BW)), intermediate-dose group (500 mg/kg BW), high-dose group (1000 mg/kg BW) and drug control group (40 mg Captopril/kg BW).
Long-term antihypertensive activity: Through the same method of sample preparation, these SHRs were feeded at the same time (9∶00 am–10∶00 am) of each day and the feeding continued for 28 days. […] Each SHR was measured for three times. […]

In assay [2] the target is T1, ACE (protease from rabbit lung) (Oryctolagus cuniculus, UniProt P12822).
T1 construct: ACE (protease from rabbit lung); purchased Sigma Chemical Co., St. Louis, MO, USA; host or cells: rabbit lung (tissue-derived)
T1 sequence (P12822 34-1310): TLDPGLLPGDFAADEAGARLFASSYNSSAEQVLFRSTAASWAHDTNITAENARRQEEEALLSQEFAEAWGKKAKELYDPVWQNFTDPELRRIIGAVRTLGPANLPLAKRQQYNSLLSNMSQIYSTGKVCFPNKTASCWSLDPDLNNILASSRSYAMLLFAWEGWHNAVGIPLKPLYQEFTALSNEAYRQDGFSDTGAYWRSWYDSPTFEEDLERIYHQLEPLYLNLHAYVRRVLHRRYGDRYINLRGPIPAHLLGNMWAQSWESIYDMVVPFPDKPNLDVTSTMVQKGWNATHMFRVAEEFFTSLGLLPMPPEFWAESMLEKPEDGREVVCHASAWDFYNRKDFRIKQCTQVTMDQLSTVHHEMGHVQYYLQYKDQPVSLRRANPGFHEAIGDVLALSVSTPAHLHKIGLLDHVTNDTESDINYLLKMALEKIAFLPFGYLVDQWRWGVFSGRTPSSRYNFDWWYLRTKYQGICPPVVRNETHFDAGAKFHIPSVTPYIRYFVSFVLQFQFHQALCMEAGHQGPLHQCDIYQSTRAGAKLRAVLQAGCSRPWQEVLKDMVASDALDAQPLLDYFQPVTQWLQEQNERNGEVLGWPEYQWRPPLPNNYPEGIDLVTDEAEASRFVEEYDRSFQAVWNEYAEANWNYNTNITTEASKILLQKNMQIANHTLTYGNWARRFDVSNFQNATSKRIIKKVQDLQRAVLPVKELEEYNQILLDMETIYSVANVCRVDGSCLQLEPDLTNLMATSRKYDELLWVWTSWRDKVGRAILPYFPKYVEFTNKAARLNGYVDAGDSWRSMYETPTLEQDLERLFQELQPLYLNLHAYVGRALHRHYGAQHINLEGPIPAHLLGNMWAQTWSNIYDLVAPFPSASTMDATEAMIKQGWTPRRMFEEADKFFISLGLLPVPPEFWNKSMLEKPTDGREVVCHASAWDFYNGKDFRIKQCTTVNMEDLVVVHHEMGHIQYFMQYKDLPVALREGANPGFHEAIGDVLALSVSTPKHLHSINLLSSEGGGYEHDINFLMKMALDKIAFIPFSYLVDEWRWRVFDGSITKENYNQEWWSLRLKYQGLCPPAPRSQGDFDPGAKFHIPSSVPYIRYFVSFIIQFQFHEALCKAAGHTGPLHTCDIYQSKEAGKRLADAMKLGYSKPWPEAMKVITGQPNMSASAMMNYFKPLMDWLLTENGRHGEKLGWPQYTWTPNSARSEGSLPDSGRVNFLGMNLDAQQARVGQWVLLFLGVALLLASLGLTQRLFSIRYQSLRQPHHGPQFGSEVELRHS
The assay can be described thus: ACE inhibiting activity (in vitro tests), HHL substrate, HPLC. In kind it is biochemical. Particulars: HEPES pH 8.3, 37°C, 30 min. An excerpt:
PPI was purchased from Lanshan Group (Shandong, China). The following commercial enzymes were obtained: Alcalase (protease)-(Novo Industri A/S, Bagsvaerd, Denmark); N120P (protease)-(Kerry Co., Tralee, Ireland) and ACE (protease from rabbit lung)-(Sigma Chemical Co., St. Louis, MO, USA). Hippuryl-histidyl-leucine (HHL) was purchased from Sigma Chemical Co. (St. Louis, MO, USA). Methyl Cyanide (Merck & Co., Inc., Rahway, NJ, USA) and trifluoroacetic acid (TFA) (Fluka Co., Buchs, Switzerland) were purchased and were of chromatographic grade. All the other materials were of analytical grade and were used as received.
Determination of ACE inhibiting activity (in vitro tests)
ACE inhibiting activity was measured using Cushman and Cheung’s method with slight modification, [34]. Specifically, 20 µL of 4-hydroxyethylpiperazine ethane sulfonic acid (HEPEs) buffer solution (pH 8.3) was mixed with 20 µL sample solution in a 0.5 ml centrifuge tube. Then, 15 µL ACE solution was added into this tube and warmed at 37°C for 3 min. […]
The ACE inhibiting activity (%) was expressed in terms of hippuric acid content and was calculated using (1). […]
The dried peanut peptide powder having molecule weight below 1 kDa was first dissolved in water to make a peptide solution with 100 mg/ml concentration. […] The IC50 of each fraction was determined as in vitro tests.

Regarding VTPALR, in the assay on ACE (from mung bean protein isolate using alcalase), the IC50 was 82.4 µM.
Regarding Leu-Ile-Tyr, the “mode of ACE inhibition” value in the assay on ACE is “non-competitive”.
In the case of `C[C@H](CS)C(=O)N1CCC[C@H]1C(=O)O` [captopril], the “antihypertensive activity compared with peanut peptide, long term” value in assay [1] is recorded as “stronger antihypertensive activity during the long term experiment”.
Take YLYEIAR: in the assay on ACE, the “mode of ACE inhibition” value is listed as “non-competitive”.
As to “KLYMRP [Fraction P8, Lys-Leu-Tyr-Met-Arg-Pro]”, the 50% inhibitory concentration (IC50) in assay [2] (printed in parentheses beside the mg/mL value, read-out: IC50 (ACE inhibition)) came to 6.42 µM. The inhibition at 100 µg/mL in assay [2] (peptide concentration 100 µg/ml, HPLC UV 228 nm) worked out at 85.8%.
Turning to “Lys-Ala-Phe-Arg [peanut tetrapeptide of Guang and Phillips]”, the ACE inhibiting activity in the assay with ACE (peanut tetrapeptide) is 16.9 µg/mL.

By IC50 is commonly meant the concentration at which inhibition is half-maximal. Broadly, the inhibition is how much of the control response was suppressed. Read a low inhibition as a response near the control.
